These results are taken from patent US20240294467A1, “USP9X Inhibitors” (ProDeg, LLC, priority 2021, published 2024).

Sequence of USP9X (Q93008 whole entry): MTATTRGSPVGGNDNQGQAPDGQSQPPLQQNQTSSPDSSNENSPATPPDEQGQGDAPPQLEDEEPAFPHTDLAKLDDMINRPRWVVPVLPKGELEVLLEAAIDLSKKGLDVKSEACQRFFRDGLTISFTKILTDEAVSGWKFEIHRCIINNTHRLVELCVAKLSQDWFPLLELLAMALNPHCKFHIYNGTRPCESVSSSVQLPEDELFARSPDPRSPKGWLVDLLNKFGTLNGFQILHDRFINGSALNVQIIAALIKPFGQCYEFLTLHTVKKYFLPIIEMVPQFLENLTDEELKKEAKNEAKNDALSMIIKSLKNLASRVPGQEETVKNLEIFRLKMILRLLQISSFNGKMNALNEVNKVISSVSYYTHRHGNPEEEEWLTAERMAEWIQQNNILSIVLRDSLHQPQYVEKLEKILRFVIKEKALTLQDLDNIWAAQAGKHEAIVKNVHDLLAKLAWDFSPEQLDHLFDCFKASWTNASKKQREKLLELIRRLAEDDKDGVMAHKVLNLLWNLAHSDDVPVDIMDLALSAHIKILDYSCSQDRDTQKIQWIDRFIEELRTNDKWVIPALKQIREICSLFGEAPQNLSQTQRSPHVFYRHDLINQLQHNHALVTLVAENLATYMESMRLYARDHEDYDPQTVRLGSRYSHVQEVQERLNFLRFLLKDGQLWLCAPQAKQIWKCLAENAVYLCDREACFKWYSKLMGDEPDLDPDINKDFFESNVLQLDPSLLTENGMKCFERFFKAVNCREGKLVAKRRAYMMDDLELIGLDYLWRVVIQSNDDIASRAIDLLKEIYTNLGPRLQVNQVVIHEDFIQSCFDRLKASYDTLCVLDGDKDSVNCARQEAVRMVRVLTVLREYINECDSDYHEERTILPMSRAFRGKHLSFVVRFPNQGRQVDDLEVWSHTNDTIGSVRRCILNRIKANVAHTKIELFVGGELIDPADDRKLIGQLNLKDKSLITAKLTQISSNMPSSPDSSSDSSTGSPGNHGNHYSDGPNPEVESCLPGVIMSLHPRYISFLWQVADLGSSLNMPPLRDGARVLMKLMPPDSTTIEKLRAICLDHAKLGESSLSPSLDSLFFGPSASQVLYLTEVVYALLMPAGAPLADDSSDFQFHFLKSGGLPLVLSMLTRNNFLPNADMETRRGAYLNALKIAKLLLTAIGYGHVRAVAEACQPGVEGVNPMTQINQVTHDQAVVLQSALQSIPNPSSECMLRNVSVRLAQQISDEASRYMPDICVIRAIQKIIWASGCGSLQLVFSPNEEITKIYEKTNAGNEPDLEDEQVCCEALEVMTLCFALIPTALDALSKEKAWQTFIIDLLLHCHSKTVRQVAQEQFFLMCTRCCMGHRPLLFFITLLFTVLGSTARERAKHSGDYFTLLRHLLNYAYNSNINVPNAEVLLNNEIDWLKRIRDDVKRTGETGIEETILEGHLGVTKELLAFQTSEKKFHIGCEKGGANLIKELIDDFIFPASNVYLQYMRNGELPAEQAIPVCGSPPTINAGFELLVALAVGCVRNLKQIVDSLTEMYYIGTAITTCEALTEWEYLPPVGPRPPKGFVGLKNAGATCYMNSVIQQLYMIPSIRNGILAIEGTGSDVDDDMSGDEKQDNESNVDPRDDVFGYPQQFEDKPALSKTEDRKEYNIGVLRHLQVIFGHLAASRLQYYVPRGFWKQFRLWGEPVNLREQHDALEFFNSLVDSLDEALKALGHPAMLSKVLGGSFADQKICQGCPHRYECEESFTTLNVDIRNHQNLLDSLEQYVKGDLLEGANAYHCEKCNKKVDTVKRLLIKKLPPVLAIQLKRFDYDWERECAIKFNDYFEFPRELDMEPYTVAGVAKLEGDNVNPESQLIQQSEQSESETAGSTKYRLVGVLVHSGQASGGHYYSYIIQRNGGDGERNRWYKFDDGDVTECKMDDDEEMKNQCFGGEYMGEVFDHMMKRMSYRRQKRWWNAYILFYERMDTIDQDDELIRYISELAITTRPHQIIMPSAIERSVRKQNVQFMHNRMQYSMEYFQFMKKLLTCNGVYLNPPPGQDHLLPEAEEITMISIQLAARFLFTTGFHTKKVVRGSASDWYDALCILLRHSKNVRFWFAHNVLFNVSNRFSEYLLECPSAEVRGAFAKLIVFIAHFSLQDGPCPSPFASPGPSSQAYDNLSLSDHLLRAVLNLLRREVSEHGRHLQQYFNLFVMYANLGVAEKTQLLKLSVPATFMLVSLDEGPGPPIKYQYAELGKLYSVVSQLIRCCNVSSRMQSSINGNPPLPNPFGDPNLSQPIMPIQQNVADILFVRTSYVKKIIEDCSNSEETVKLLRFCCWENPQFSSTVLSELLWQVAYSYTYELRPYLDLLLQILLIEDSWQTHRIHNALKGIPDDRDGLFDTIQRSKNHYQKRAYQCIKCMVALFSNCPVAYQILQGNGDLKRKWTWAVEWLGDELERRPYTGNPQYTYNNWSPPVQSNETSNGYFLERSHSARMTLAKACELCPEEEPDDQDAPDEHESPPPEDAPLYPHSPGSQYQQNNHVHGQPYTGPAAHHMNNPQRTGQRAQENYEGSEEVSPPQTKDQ

One test addresses USP9X (Homo sapiens (Human), UniProt Q93008). In words: USP9X enzyme activity assay, ubiquitin-rhodamine110 substrate. Particulars: Table 8.
Procedure: The inhibition property of compound Compound 1A was evaluated in assays measuring the ability of USP9X to catalyze the hydrolysis of the amide bond between the C terminal carboxylate of ubiquitin and rhodamine110 of the fluorogenic substrate ubiquitin-rhodamine 110. To the wells of a 96 well reaction plate was added 12.5 μL USP9X solution (1.3 nM) in assay buffer (100 mM NaCl, 1 mM DTT, 0.1% bovine serum albumin, 0.05% Tween 20, 50 mM Tris, pH 7.5). 12.5 μL of Compound 1A in assay buffer (4×final concentration) was added to the wells containing the USP9X solution, and the solution was gently mixed by pipetting up and down several times. The plate was sealed and incubated at room temperature for 20 minutes.
Then 25 μL of the 1 μM substrate (ubiquitin-rhodaminel10) solution was added in assay buffer. The final substrate concentration was 0.5 μM. […] The slope for the rate of change of the fluorescence was determined and plotted vs the concentration of Compound 1A.
USP9X enzyme assays were set up in a 96 well plate to assess the abilities of Compound 3A and Compound 4A to inhibit the activity of USP9X, respectively. Ubiquitin-rhodamine110 was used as the substrate and ubiquitin aldehyde was included in the assay as a positive control.
Purified recombinant USPx9 (R&D Systems) in 50 mM Tris buffer pH 7.5, 1 mM DTT, 100 mM NaCl, 0.05% Tween 20 and 0/1% BSA is used at a concentration of 0.325 nM with 0.5 μM ubiquitin-rhodamine (R&D Systems).
Take `CC(=O)N[C@@H](CC(C)(C)C)C(=O)Nc1ccc(CCNC(=O)CC(C)(C)CC(=O)NCCOc2ccc(C(=O)NCc3cccc(C(=O)O)c3)cc2)cc1` [Compound 70]: the “USP9X IC50/UM” value is greater than 50 UM.
For the compound `CC(C)(C)C[C@H](N)C(=O)Nc1ccc(CCNC(=O)CC(C)(C)CC(=O)NCCOc2ccc(C(=O)NCc3cccc(C(=O)O)c3)cc2)cc1` [Compound 69], the “USP9X IC50/UM” value was greater than 50 UM.
In the case of `CC(=O)Nc1ccc(CCNC(=O)CC(C)(C)CC(=O)NCCOc2ccc(C(=O)NCc3cccc(C(=O)N[C@@H](CC(C)(C)C)C(=O)O)c3)cc2)cc1` [Compound 67], the “USP9X IC50/UM” value is greater than 50 UM.
On to `CNCCOc1ccc(C(=O)NCc2cccc(C(=O)N[C@@H](CC3CCCCC3)C(=O)Nc3ccc(CCC(=O)O)cc3)c2)cc1` [Compound 37], for which the “USP9X IC50/UM” value is reported as greater than 50 UM.
Still for that read-out and setting: with `CNCCOc1ccc(C(=O)NCc2cccc(C(=O)N[C@@H](CC(C)C)C(=O)Nc3ccc(CCC(=O)O)cc3)c2)cc1` [Compound 32] the figure was greater than 50 UM; with `CNCCOc1ccc(C(=O)NCc2cccc(C(=O)N3CCCC3C(=O)Nc3ccc(CCC(=O)O)cc3)c2)cc1` (stereo not drawn) [Compound 36], greater than 50 UM.
As for `CNCCOc1ccc(C(=O)NCc2cccc(C(=O)N[C@@H](CC(C)(C)C)C(=O)Nc3ccc(CCC(=O)O)cc3)c2)cc1` [Compound 30], the “USP9X IC50/UM” value was greater than 50 UM.
Consider `CNC(=O)c1cccc(CNC(=O)c2ccc(OCCNC(=O)CC(C)(C)CC(=O)NCCc3ccc(NC(=O)[C@H](CC(C)(C)C)NC(C)=O)cc3)cc2)c1` [Compound 71], for which the “USP9X IC50/UM” value is greater than 50 UM.
For the compound `CNC(=O)[C@H](CC(C)(C)C)NC(=O)c1cccc(CNC(=O)c2ccc(OCCNC(=O)CC(C)(C)CC(=O)NCCc3ccc(NC(C)=O)cc3)cc2)c1` [Compound 68], the “USP9X IC50/UM” value is greater than 50 UM.

Still in this test, the particulars now being: higher concentrations of compound (>10 μM).
For the compound `CC(C)(C)C[C@@H]1NC(=O)c2cccc(c2)CNC(=O)c2ccc(cc2)OCCNC(=O)CCCCC(=O)N[C@H](C(=O)O)Cc2ccc(cc2)NC1=O` [Compound 4A], the “reduction of USP9X activity” value is “approximately 60%”.
The same measure, in the same setting: with `COCCNC(=O)[C@@H]1Cc2ccc(cc2)NC(=O)[C@H](CC(C)(C)C)NC(=O)c2cccc(c2)CNC(=O)c2ccc(cc2)OCCNC(=O)CC(C)(C)CC(=O)N1` [Compound 3A] the entry was “approximately 60%”.

Staying with this test, now noted: read-out: USP9X IC50/UM; Table 8.
In the case of `CN(C)CCOc1ccc(C(=O)NCc2cccc(C(=O)N[C@@H](CC(C)(C)C)C(=O)NCCN3CCCC3)c2)cc1` [Compound 19], the IC50 was 8 µM.
Consider `CNCCOc1ccc(C(=O)NCc2cccc(C(=O)N[C@@H](CC(C)(C)C)C(=O)Nc3ccc(CCc4ccccn4)cc3)c2)cc1` [Compound 6], for which the IC50 is 0.7 µM.
Still for that read-out and setting: with `CNCCOc1ccc(C(=O)NCc2cccc(C(=O)N[C@@H](CC(C)(C)C)C(=O)Nc3cccc(Cn4cccn4)c3)c2)cc1` [Compound 8] the figure was 1.1 µM.
For `CNCCOc1ccc(C(=O)NCc2cccc(C(=O)N3CCCC3C(=O)Nc3ccc(CCC(=O)O)cc3)c2)cc1` (stereo not drawn) [Compound 35], the IC50 was 7 µM.
On to `CNC(=O)c1ccc(OCCNC(=O)CC(C)(C)CC(=O)NCCc2ccc(NC(=O)[C@H](CC(C)(C)C)NC(=O)c3cccc(CNC(C)=O)c3)cc2)cc1` [Compound 74], for which the IC50 was determined as 12 µM.
For the compound `CN(C)CCNC(=O)[C@H](CC(C)(C)C)NC(=O)c1cccc(CNC(=O)c2ccc(OCCN(C)C)cc2)c1` [Compound 15], the IC50 came out at 23 µM.
Same read-out and setting: the figure for `CN(C)CCOc1ccc(C(=O)NCc2cccc(C(=O)N[C@@H](CC(C)(C)C)C(=O)Nc3ccc(CN4CCCC4)cc3)c2)cc1` [Compound 5] is 0.055 µM; for `CC(C)(C)C[C@H](NC(=O)c1cccc(CNC(=O)c2ccc(OCCO)cc2)c1)C(=O)Nc1ccc(CCN)cc1` [Compound 63] it is 0.22 µM.
The same measure, in the same setting: the figure for `CC(C)(C)C[C@H](NC(=O)c1cc(CNC(=O)c2ccccc2)ccc1F)C(=O)Nc1ccc(CCC(=O)O)cc1` [Compound 58] is 4.9 µM.
With `CNC(=O)CCc1ccc(NC(=O)[C@H](CC(C)(C)C)NC(=O)c2cc(CNC(=O)c3ccc(OC)cc3)ccc2F)cc1` [Compound 43], the IC50 turned out to be 0.76 µM.
The same measure, in the same setting: the figure for `CN(C)CCCNC(=O)[C@H](CC(C)(C)C)NC(=O)c1cccc(CNC(=O)c2ccc(OCCN(C)C)cc2)c1` [Compound 16] is 18 µM; for `CC(C)(C)C[C@H](NC(=O)c1cccc(CNC(=O)c2ccccc2)c1)C(=O)Nc1ccc(CCC(=O)O)cc1` [Compound 57] it is 7 µM.
`CNCCOc1ccc(C(=O)NCc2cccc(C(=O)N[C@@H](CC(C)C)C(=O)Nc3ccc(CCC(=O)O)cc3)c2)cc1` [Compound 31]: the IC50 was 6 µM.
Same read-out and setting: with `CC(C)(C)CC(=O)NCCc1ccc(NC(=O)[C@H](CC(C)(C)C)NC(=O)c2cccc(CNC(=O)c3ccc(OCCO)cc3)c2)cc1` [Compound 65] the figure was 0.6 µM.
As for `CN(C)CCOc1ccc(C(=O)NCc2cccc(C(=O)N[C@@H](CC(C)(C)C)C(=O)Nc3ccc(CCc4ccccn4)cc3)c2)cc1` [Compound 7], the IC50 was found to be 0.59 µM.
On the same count and under the same terms, with `CNCCOc1ccc(C(=O)NCc2cccc(C(=O)N[C@@H](CC(C)(C)C)C(=O)Nc3ccc(CCNC(=O)CC(C)(C)CC(=O)O)cc3)c2)cc1` [Compound 2] the figure was 0.18 µM; with `CNC(=O)CCc1ccc(NC(=O)[C@H](CC(C)(C)C)NC(=O)c2cc(CNC(C)=O)ccc2F)cc1` [Compound 49], 5 µM; with `COc1ccc(C(=O)NCc2cccc(C(=O)N[C@@H](CC(C)(C)C)C(=O)Nc3ccc(CCN(C)C)cc3)c2)cc1` [Compound 44], 0.24 µM.
Take `COC(=O)c1cc(NC(=O)[C@H](CC(C)(C)C)NC(=O)c2cccc(CNC(=O)c3ccc(OCCN(C)C)cc3)c2)ccc1C` [Compound 24]: the IC50 is 0.066 µM.
On the same count and under the same terms, the figure for `COc1ccc(NC(=O)[C@H](CC(C)(C)C)NC(=O)c2cccc(CNC(=O)c3ccc(OCCN(C)C)cc3)c2)cc1` [Compound 23] is 0.24 µM; for `CN(C)CCOc1ccc(C(=O)NCc2cccc(C(=O)N[C@@H](CC(C)(C)C)C(=O)NCc3ccccn3)c2)cc1` [Compound 28] it is 32 µM.
Still for that read-out and setting: with `Cc1ccc(NC(=O)[C@H](CC(C)(C)C)NC(=O)c2cccc(CNC(=O)c3ccc(OCCN(C)C)cc3)c2)cc1` [Compound 22] the figure was 0.42 µM.
Same read-out and setting: with `CN(C)CCOc1ccc(C(=O)NCc2cccc(C(=O)N[C@@H](CC(C)(C)C)C(=O)Nc3ccc(CCN(C)C)cc3)c2)cc1` [Compound 13] the figure was 0.044 µM.
Take `CNCCOc1ccc(C(=O)NCc2ccc(F)c(C(=O)N[C@@H](CC(C)(C)C)C(=O)Nc3ccc(CCC(=O)O)cc3)c2)cc1` [Compound 53]: the IC50 was 0.36 µM.
The same measure, in the same setting: with `CNCCOc1ccc(C(=O)NCc2cccc(C(=O)N[C@@H](CC(C)(C)C)C(=O)Nc3ccc(CC(NC(=O)CC(C)(C)CC(=O)O)C(=O)OC)cc3)c2)cc1` (stereo partly drawn) [Compound 1] the figure was 0.53 µM; with `CNC(=O)CCc1ccc(NC(=O)[C@H](CC(C)(C)C)NC(=O)c2cc(CNC(=O)c3ccc(OCCN(C)C)cc3)ccc2F)cc1` [Compound 41], 0.09 µM.
On to `CC(C)(C)C[C@H](NC(=O)c1cccc(CN)c1)C(=O)Nc1ccc(CCNC(=O)CC(C)(C)CC(=O)NCCOc2ccc(C(=O)O)cc2)cc1` [Compound 72], for which the IC50 is 29 µM.
On to `CC(=O)NCc1cccc(C(=O)N[C@@H](CC(C)(C)C)C(=O)Nc2ccc(CCN(C)C)cc2)c1` [Compound 50], for which the IC50 is 2.3 µM.
For `COc1ccc(C(=O)NCc2cccc(C(=O)N[C@@H](CC(C)(C)C)C(=O)Nc3ccc(CCC(=O)O)cc3)c2)cc1` [Compound 55], the IC50 came out at 4.7 µM.
On the same count and under the same terms, the figure for `CN(C)CCOc1ccc(C(=O)NCc2cccc(C(=O)N[C@@H](CC(C)(C)C)C(=O)Nc3ccc4nccn4c3)c2)cc1` [Compound 20] is 0.063 µM; for `CNCCOc1ccc(C(=O)NCc2cccc(C(=O)N[C@@H](CC(C)(C)C)C(=O)Nc3ccc(CC(F)(F)F)cc3)c2)cc1` [Compound 12] it is 1.3 µM.
Same read-out and setting: the figure for `CN(C)CCc1ccc(NC(=O)[C@H](CC(C)(C)C)NC(=O)c2cccc(CNC(=O)c3ccccc3)c2)cc1` [Compound 47] is 0.32 µM; for `CN(C)CCOc1ccc(C(=O)NCc2cccc(C(=O)N[C@@H](CC(C)(C)C)C(=O)Nc3cccc(Cn4cccn4)c3)c2)cc1` [Compound 9] it is 0.15 µM.
In the case of `CNC(=O)CCc1ccc(NC(=O)[C@H](CC(C)(C)C)NC(=O)c2cccc(CNC(=O)c3ccc(OC)cc3)c2)cc1` [Compound 42], the IC50 was 1.3 µM.
Regarding `CN(C)CCOc1ccc(C(=O)NCc2cccc(C(=O)N[C@@H](CC(C)(C)C)C(=O)Nc3ccc(Cn4ccnc4)cc3)c2)cc1` [Compound 11], the IC50 is 0.08 µM.
On the same count and under the same terms, with `CNCCOc1ccc(C(=O)NCc2cccc(C(=O)N[C@@H](CC(C)(C)C)C(=O)Nc3ccc(CN4CCCC4)cc3)c2)cc1` [Compound 4] the figure was 0.054 µM; with `COC(=O)c1cccc(NC(=O)[C@H](CC(C)(C)C)NC(=O)c2cccc(CNC(=O)c3ccc(OCCN(C)C)cc3)c2)c1` [Compound 25], 0.068 µM; with `CNCCOc1ccc(C(=O)NCc2cccc(C(=O)N[C@@H](CC(C)(C)C)C(=O)Nc3ccc(Cn4ccnc4)cc3)c2)cc1` [Compound 10], 0.091 µM.
Still for that read-out and setting: the figure for `CNC(=O)CCc1ccc(NC(=O)[C@H](CC(C)(C)C)NC(=O)c2cccc(CNC(C)=O)c2)cc1` [Compound 48] is 8.9 µM.
With `CC(=O)NCCc1ccc(NC(=O)[C@H](CC(C)(C)C)NC(=O)c2cccc(CNC(=O)c3ccc(OCCO)cc3)c2)cc1` [Compound 64], the IC50 was found to be 0.65 µM.
Still for that read-out and setting: with `CC(=O)NCc1cccc(C(=O)N[C@@H](CC(C)(C)C)C(=O)Nc2ccc(CCNC(=O)CC(C)(C)CC(=O)NCCOc3ccc(C(=O)O)cc3)cc2)c1` [Compound 73] the figure was 15 µM.

The same test, now with this note: ubiquitin-rhodamine110 substrate.
For the compound ubiquitin aldehyde [reference compound], the “effect on USP9X activity” value is on record as “completely abolished”.
Still for that read-out and setting: with `CN1CCOc2ccc(cc2)C(=O)NCc2ccc(F)c(c2)C(=O)N[C@@H](CC(C)(C)C)C(=O)Nc2ccc(cc2)CCN(C)C(=O)CCC(C)(C)CCC1=O` [Compound 1A, (S)-5^4-fluoro-14,18,18,22-tetramethyl-S-neopentyl-25-oxa-3,7,10,14,22-pentaaza-1,11(1,4),5(1,3)-tribenzenacyclopentacosaphane-2,6,9,15,21-pentaone] the entry was “partially inhibited”.
